Organism: Rattus norvegicus
Test: Open TG-GATES - Regimen: Single
Type: toxicity, organism-based, Sprague-Dawley
Parameters: regimen Single, gender Male, age 6 weeks
Conditions: in vivo, ip, 0.03 mg/kg, route intraperitoneal injection, dose 30 ug/Kg, dose level Low; for APTT / Bas / Eos / Fbg / Hb / Ht / Lym / MCH / MCHC / MCV / Mono / Neu / PT / Plat / RBC / Ret / WBC: tissue Blood; for KIDNEY_L / KIDNEY_R / KIDNEY_TOTAL: tissue Kidney; for LIVER: tissue Liver; for A/G / ALP / ALT / AST / BUN / CRE / Ca / Cl / DBIL / GLC / IP / K / LDH / Na / PL / RALB / TBIL / TC / TG / TP / gamma-GTP: tissue Plasma

SMILES: CC(=O)N[C@H]1[C@@H](O[C@@H]2O[C@H](CC(O)[C@H]3O[C@@H](n4ccc(=O)[nH]c4=O)[C@H](O)[C@@H]3O)[C@H](O)[C@H](O)[C@H]2NC(=O)/C=C/CC(C)C)O[C@H](CO)[C@@H](N)[C@@H]1O (some centres not stated) [TUNICAMYCIN]
- TERMINAL_BW (3 h): 222.8 g
- APTT (3 h): 22.4 s
- Bas (3 h): 0%
- Eos (3 h): 0.6%
- Fbg (3 h): 302.4 mg/dL
- Hb (3 h): 13 g/dL
- Ht (3 h): 39.3%
- Lym (3 h): 81%
- MCH (3 h): 20.5 pg
- MCHC (3 h): 33%
- MCV (3 h): 62.1 fL
- Mono (3 h): 3%
- Neu (3 h): 14.4%
- PT (3 h): 15.7 s
- Plat (3 h): 115.4 x10_4/uL
- RBC (3 h): 633.2 x10_4/ul
- Ret (3 h): 8.1%
- WBC (3 h): 99.9 x10_2/uL
- KIDNEY_L (3 h): 1 g
- KIDNEY_R (3 h): 1 g
- KIDNEY_TOTAL (3 h): 2 g
- LIVER (3 h): 10.4 g
- A/G (3 h): 1.2
- ALP (3 h): 1404.2 IU/L
- ALT (3 h): 37.6 IU/L
- AST (3 h): 69.6 IU/L
- BUN (3 h): 15.4 mg/dL
- CRE (3 h): 0.2 mg/dL
- Ca (3 h): 10.8 mg/dL
- Cl (3 h): 106 meq/L
- DBIL (3 h): 0 mg/dL
- GLC (3 h): 173.4 mg/dL
- IP (3 h): 7.5 mg/dL
- K (3 h): 4.5 meq/L
- LDH (3 h): 151.2 IU/L
- Na (3 h): 140.8 meq/L
- PL (3 h): 126 mg/dL
- RALB (3 h): 2.9 g/dL
- TBIL (3 h): 0.01 mg/dL
- TC (3 h): 71.8 mg/dL
- TG (3 h): 78.6 mg/dL
- TP (3 h): 5.4 g/dL
- gamma-GTP (3 h): 1.4 IU/L
- TERMINAL_BW (6 h): 219.6 g
- APTT (6 h): 21.8 s
- Bas (6 h): 0%
- Eos (6 h): 0.4%
- Fbg (6 h): 295 mg/dL
- Hb (6 h): 13.2 g/dL
- Ht (6 h): 39.8%
- Lym (6 h): 77.8%
- MCH (6 h): 20.9 pg
- MCHC (6 h): 33%
- MCV (6 h): 63.3 fL
- Mono (6 h): 2%
- Neu (6 h): 18.6%
- PT (6 h): 15.6 s
- Plat (6 h): 114.3 x10_4/uL
- RBC (6 h): 629.2 x10_4/ul
- Ret (6 h): 7.1%
- WBC (6 h): 90.7 x10_2/uL
- KIDNEY_L (6 h): 1 g
- KIDNEY_R (6 h): 1 g
- KIDNEY_TOTAL (6 h): 2 g
- LIVER (6 h): 9.8 g
- A/G (6 h): 1.2
- ALP (6 h): 1356.2 IU/L
- ALT (6 h): 42.6 IU/L
- AST (6 h): 74.6 IU/L
- BUN (6 h): 12.6 mg/dL
- CRE (6 h): 0.2 mg/dL
- Ca (6 h): 10.8 mg/dL
- Cl (6 h): 105.2 meq/L
- DBIL (6 h): 0 mg/dL
- GLC (6 h): 168.2 mg/dL
- IP (6 h): 8.9 mg/dL
- K (6 h): 4.4 meq/L
- LDH (6 h): 157.8 IU/L
- Na (6 h): 141.2 meq/L
- PL (6 h): 120.6 mg/dL
- RALB (6 h): 2.9 g/dL
- TBIL (6 h): 0.018 mg/dL
- TC (6 h): 69.2 mg/dL
- TG (6 h): 57.6 mg/dL
- TP (6 h): 5.3 g/dL
- gamma-GTP (6 h): 1.2 IU/L
- TERMINAL_BW (9 h): 213.3 g
- APTT (9 h): 23.6 s
- Bas (9 h): 0%
- Eos (9 h): 0.6%
- Fbg (9 h): 315.4 mg/dL
- Hb (9 h): 13.5 g/dL
- Ht (9 h): 41%
- Lym (9 h): 83.8%
- MCH (9 h): 21 pg
- MCHC (9 h): 32.9%
- MCV (9 h): 63.8 fL
- Mono (9 h): 2%
- Neu (9 h): 12.8%
- PT (9 h): 15.8 s
- Plat (9 h): 112.5 x10_4/uL
- RBC (9 h): 643.2 x10_4/ul
- Ret (9 h): 7.5%
- WBC (9 h): 85.7 x10_2/uL
- KIDNEY_L (9 h): 0.9 g
- KIDNEY_R (9 h): 1 g
- KIDNEY_TOTAL (9 h): 1.9 g
- LIVER (9 h): 8.9 g
- A/G (9 h): 1.2
- ALP (9 h): 1454.8 IU/L
- ALT (9 h): 36.4 IU/L
- AST (9 h): 71.2 IU/L
- BUN (9 h): 12.8 mg/dL
- CRE (9 h): 0.1 mg/dL
- Ca (9 h): 10.8 mg/dL
- Cl (9 h): 106 meq/L
- DBIL (9 h): 0 mg/dL
- GLC (9 h): 181 mg/dL
- IP (9 h): 9.3 mg/dL
- K (9 h): 4.4 meq/L
- LDH (9 h): 174 IU/L
- Na (9 h): 142.2 meq/L
- PL (9 h): 129 mg/dL
- RALB (9 h): 3 g/dL
- TBIL (9 h): 0.01 mg/dL
- TC (9 h): 75.4 mg/dL
- TG (9 h): 70.4 mg/dL
- TP (9 h): 5.5 g/dL
- gamma-GTP (9 h): 1 IU/L
- TERMINAL_BW (24 h): 234.5 g
- APTT (24 h): 21.3 s
- Bas (24 h): 0%
- Eos (24 h): 0.8%
- Fbg (24 h): 308.6 mg/dL
- Hb (24 h): 12.8 g/dL
- Ht (24 h): 39.3%
- Lym (24 h): 82%
- MCH (24 h): 20.1 pg
- MCHC (24 h): 32.5%
- MCV (24 h): 61.6 fL
- Mono (24 h): 2.6%
- Neu (24 h): 13.4%
- PT (24 h): 15.7 s
- Plat (24 h): 114.8 x10_4/uL
- RBC (24 h): 637.8 x10_4/ul
- Ret (24 h): 7.4%
- WBC (24 h): 75.9 x10_2/uL
- KIDNEY_L (24 h): 1 g
- KIDNEY_R (24 h): 1.1 g
- KIDNEY_TOTAL (24 h): 2.1 g
- LIVER (24 h): 11.1 g
- A/G (24 h): 1.2
- ALP (24 h): 1690.8 IU/L
- ALT (24 h): 40.4 IU/L
- AST (24 h): 67.8 IU/L
- BUN (24 h): 16.6 mg/dL
- CRE (24 h): 0.1 mg/dL
- Ca (24 h): 10.4 mg/dL
- Cl (24 h): 105.6 meq/L
- DBIL (24 h): 0 mg/dL
- GLC (24 h): 183.4 mg/dL
- IP (24 h): 7.3 mg/dL
- K (24 h): 4.6 meq/L
- LDH (24 h): 148 IU/L
- Na (24 h): 141.2 meq/L
- PL (24 h): 141.6 mg/dL
- RALB (24 h): 3 g/dL
- TBIL (24 h): 0.006 mg/dL
- TC (24 h): 76.4 mg/dL
- TG (24 h): 98.6 mg/dL
- TP (24 h): 5.6 g/dL
- gamma-GTP (24 h): 1.4 IU/L

Source: ChEMBL document CHEMBL3885861, “Open TG-GATES”
